Measurements: patent US8809336B2, “Ortho-condensed pyridine and pyrimidine derivatives (e.g., purines) as protein kinases inhibitors” (Astex Therapeutics Limited, priority 2004, dated 2014)
Like-named read-outs stand apart in the source and are kept apart here.

Columns and labels:
PKA catalytic domain = target: T1, PKA catalytic domain (Homo sapiens, UniProt P17612); assay: Measurement of PKA kinase inhibitory activity (IC50), 33P-ATP filter plate assay; type: biochemical
T1 construct: using the PKA catalytic domain from Upstate Biotechnology (#14-440); purchased Upstate Biotechnology 14-440
Protocol: A final concentration of 1 nM enzyme is used in a buffer that includes 20 mM MOPS pH 7.2, 40 μM ATP/γ^33P-ATP and […] substrate. Compounds are added in dimethylsulphoxide (DMSO) solution to a final DMSO concentration of 2.5%. The reaction is allowed to proceed for 20 minutes before addition of excess orthophosphoric acid to quench activity. Unincorporated γ^33P-ATP is then separated from phosphorylated proteins on a Millipore MAPH filter plate. The plates are washed, scintillant is added and the plates are then subjected to counting on a Packard Topcount.

PKB-PIF fusion protein = target: T2, PKB-PIF fusion protein (Homo sapiens, UniProt P31751); assay: Measurement of PKB kinase inhibitory activity (IC50), 33P-ATP phosphocellulose filter assay; type: biochemical
T2 construct: PIF (fusion partner); made in house
T2 sequence (P31751 with tags, fused parts or gaps limits assumed): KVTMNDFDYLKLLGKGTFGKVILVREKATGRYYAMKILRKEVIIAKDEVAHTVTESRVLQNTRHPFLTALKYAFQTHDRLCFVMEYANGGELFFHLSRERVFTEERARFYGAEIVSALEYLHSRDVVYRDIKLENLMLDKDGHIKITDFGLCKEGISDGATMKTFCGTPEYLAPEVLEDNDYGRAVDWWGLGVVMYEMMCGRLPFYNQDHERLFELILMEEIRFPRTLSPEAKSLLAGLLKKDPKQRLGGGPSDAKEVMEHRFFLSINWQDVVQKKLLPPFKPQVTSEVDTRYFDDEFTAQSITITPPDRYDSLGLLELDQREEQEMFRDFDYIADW
Protocol: The inhibition of protein kinase B (PKB) activity by compounds can be determined essentially as described by Andjelkovic et al. (Mol. Cell. Biol. 19, 5061-5072 (1999)) but using a fusion protein described as PKB-PIF and described in full by Yang et al (Nature Structural Biology 9, 940-944 (2002)). […] A final concentration of 0.6 nM enzyme is used in a buffer that includes 20 mM MOPS pH 7.2, 30 μM ATP/γ^33P-ATP and 25 μM substrate.
Compounds are added in DMSO solution to a final DMSO concentration of 2.5%. The reaction is allowed to proceed for 20 minutes before addition of excess orthophosphoric acid to quench activity. The reaction mixture is transferred to a phosphocellulose filter plate where the peptide binds and the unused ATP is washed away. After washing, scintillant is added and the incorporated activity measured by scintillation counting.
The % inhibition of the PKB activity is calculated and plotted in order to determine the concentration of test compound required to inhibit 50% of the PKB activity (IC50).

[1] = 1 nM enzyme, 40 μM ATP, 20 minutes, read-out: IC50, inhibition of PKA activity
[2] = 0.6 nM enzyme, 30 μM ATP, 25 μM AKTide-2T substrate, 20 minutes, read-out: IC50, inhibition of PKB activity

Structure (SMILES)	IC50 (PKA catalytic domain; [1]) [µM]	IC50 (PKB-PIF fusion protein; [2]) [µM]	IC50 (PKB-PIF fusion protein) [µM]	IC50 (PKA catalytic domain) [µM]
O=c1[nH]c2ncnc(N3CCNCC3)c2[nH]1 [Example 6, 6-(Piperazin-1-yl)-7,9-dihydropurin-8-one]	< 10	< 10	–	–
NC1CCN(c2ccnc3[nH]ccc23)CC1 [Example 13, 1-(1H-Pyrrolo[2,3-b]pyridin-4-yl)-piperidin-4-ylamine]	< 10	< 10	–	–
NCC1(c2ccc(Cl)cc2)CCN(c2ccnc3[nH]ccc23)CC1 [Example 21, C-[4-(4-Chlorophenyl)-1-(1H-pyrrolo[2,3-b]pyridin-4-yl)piperidin-4-yl]methylamine]	–	< 10	–	–
N#CC1(c2ccc(Cl)cc2)CCN(c2ncnc3[nH]ccc23)CC1 [Example 24, 4-(4-Chlorophenyl)-1-(7H-pyrrolo[2,3-d]pyrimidin-4-yl)piperidine-4-carbonitrile]	–	–	< 10	–
NC1(c2ccc(Cl)cc2)CCN(c2ncnc3[nH]ccc23)CC1 [Example 25, 4-(4-Chlorophenyl)-1-(7H-pyrrolo[2,3-d]pyrimidin-4-yl)piperidin-4-ylamine]	–	–	< 10	< 10
NCC1(c2ccc(Cl)c(Cl)c2)CCN(c2ncnc3[nH]cnc23)CC1 [Example 29, C-[4-(3,4-Dichlorophenyl)-1-(9H-purin-6-yl)piperidin-4-yl]methylamine]	–	< 10	–	–
NCC1(c2ccc(OC(F)(F)F)cc2)CCN(c2ncnc3[nH]ccc23)CC1 [Example 30]	–	< 10	–	–
NCC1(c2ccc(C(F)(F)F)cc2)CCN(c2ncnc3[nH]cnc23)CC1 [Example 33, C-[1-(9H-Purin-6-yl)-4-(4-trifluoromethylphenyl)piperidin-4-yl]methylamine]	–	< 10	–	–
NCC1(c2cccc(C(F)(F)F)c2)CCN(c2ncnc3[nH]ccc23)CC1 [Example 34, C-[1-(7H-Pyrrolo[2,3-d]pyrimidin-4-yl)-4-(3-trifluoromethylphenyl)piperidin-4-yl]methylamine]	–	< 10	–	–
NCC1(c2cccc(C(F)(F)F)c2)CCN(c2ncnc3[nH]cnc23)CC1 [Example 35, C-[1-(9H-Purin-6-yl)-4-(3-trifluoromethylphenyl)piperidin-4-yl]methylamine]	–	< 10	–	–
NCC1(c2ccc(F)c(F)c2)CCN(c2ncnc3[nH]cnc23)CC1 [Example 37, C-[4-(3,4-Difluorophenyl)-1-(9H-purin-6-yl)piperidin-4-yl]methylamine]	–	< 10	–	–
COc1ccc(C2(CN)CCN(c3ncnc4[nH]cnc34)CC2)cc1 [Example 39, C-[4-(4-Methoxyphenyl)-1-(9H-purin-6-yl)piperidin-4-yl]methylamine]	–	< 10	–	–
CC(C)NCC1(c2ccc(Cl)cc2)CCN(c2ncnc3[nH]ccc23)CC1 [Example 43, [4-(4-Chlorophenyl)-1-(7H-pyrrolo[2,3-d]pyrimidin-4-yl)-piperidin-4-ylmethyl]-isopropylamine]	–	< 10	–	–
NCC1(Cc2ccc(Cl)c(Cl)c2)CCN(c2ncnc3[nH]cnc23)CC1 [Example 46, C-[4-(3,4-Dichlorobenzyl)-1-(9H-purin-6-yl)piperidin-4-yl]methylamine]	–	< 10	–	–
NCC1(Cc2ccc(OC(F)(F)F)cc2)CCN(c2ncnc3[nH]ccc23)CC1 [Example 47, C-[1-(7H-Pyrrolo[2,3-d]pyrimidin-4-yl)-4-(4-trifluoromethoxybenzyl)piperidin-4-yl]methylamine]	–	< 10	–	–
NCC1(Cc2ccc(OC(F)(F)F)cc2)CCN(c2ncnc3[nH]cnc23)CC1 [Example 48, C-[1-(9H-Purin-6-yl)-4-(4-trifluoromethoxybenzyl)piperidin-4-yl]methylamine]	–	< 10	–	–
NC1(Cc2ccc(Cl)c(Cl)c2)CCN(c2ncnc3[nH]cnc23)CC1 [Example 50, 4-(3,4-Dichlorobenzyl)-1-(9H-purin-6-yl)piperidin-4-yl amine]	–	< 10	–	–
NC1(Cc2ccc(OC(F)(F)F)cc2)CCN(c2ncnc3[nH]cnc23)CC1 [Example 52, 1-(9H-Purin-6-yl)-4-(4-trifluoromethoxybenzyl)piperidin-4-ylamine]	–	< 10	–	–

More lines, main results first:

IC50 (PKA catalytic domain; [1]) [µM]	IC50 (PKB-PIF fusion protein; [2]) [µM]	Structure (SMILES)	IC50 (PKB-PIF fusion protein) [µM]	IC50 (PKA catalytic domain) [µM]
< 10	< 10	CNC1CCN(c2ncnc3[nH]cnc23)CC1 [Example 1, Methyl-[1-(9H-purin-6-yl)-piperidin-4-yl]-amine]	–	–
–	< 10	c1ccc(CNC2CCN(c3ncnc4[nH]cnc34)CC2)cc1 [Example 2, Benzyl-[1-(9H-purin-6-yl)-piperidin-4-yl]-amine]	–	–
< 50	< 10	NC1CCN(c2ncnc3[nH]c(=O)[nH]c23)CC1 [Example 4, 6-(4-Aminopiperidin-1-yl)-7,9-dihydropurin-8-one]	–	–
< 50	< 50	O=c1[nH]c2ncnc(N3CCC(O)(Cc4ccccc4)CC3)c2[nH]1 [Example 5, 6-(4-Benzyl-4-hydroxypiperidin-1-yl)-7,9-dihydropurin-8-one]	–	–
< 50	< 50	O=c1[nH]c2ncnc(N3CCN[C@H](COCc4ccccc4)C3)c2[nH]1 [Example 7, (3S)-6-(3-Benzyloxymethylpiperazin-1-yl)-7,9-dihydropurin-8-one]	–	–
< 10	< 10	O=c1[nH]c2ncnc(N3CCC(NCCc4ccccc4)CC3)c2[nH]1 [Example 8, 6-(4-Phenethylaminopiperidin-1-yl)-7,9-dihydro-purin-8-one]	–	–
< 50	< 50	O=c1[nH]c2ncnc(N3CCC(NCc4ccccc4Cl)CC3)c2[nH]1 [Example 9, 6-[4-(2-Chlorobenzylamino)-piperidin-1-yl]-7,9-dihydro-purin-8-one]	–	–
< 10	< 10	O=c1[nH]c2ncnc(N3CCC(NCc4cccc(Cl)c4)CC3)c2[nH]1 [Example 10, 6-[4-(3-Chlorobenzylamino)-piperidin-1-yl]-7,9-dihydro-purin-8-one]	–	–
< 10	< 10	NC1CCN(c2ncnc3[nH]ncc23)CC1 [Example 11, 1-(1H-Pyrazolo[3,4-d]pyrimidin-4-yl)-piperidin-4-ylamine]	–	–
< 10	< 10	NC1CCN(c2ncnc3[nH]ccc23)CC1 [Example 12, 1-(7H-Pyrrolo[2,3-d]pyrimidin-4-yl)-piperidin-4-ylamine]	–	–
< 10	< 10	NCC1(c2ccc(Cl)cc2)CCN(c2ncnc3[nH]ccc23)CC1 [Example 14, C-[4-(4-Chloro-phenyl)-1-(7H-pyrrolo[2,3-d]pyrimidin-4-yl)-piperidin-4-yl]-methylamine]	–	–
–	< 10	NCC1(c2ccc(Cl)cc2)CCN(c2ncnc3[nH]cnc23)CC1 [Example 15, C-[4-(4-Chloro-phenyl)-1-(9H-purin-6-yl)-piperidin-4-yl]-methylamine]	–	–
–	< 10	NC1(Cc2ccccc2)CCN(c2ncnc3[nH]cnc23)CC1 [Example 16, 4-Benzyl-1-(9H-purin-6-yl)piperidin-4-ylamine]	–	–
< 10	< 10	NC1(Cc2ccc(Cl)cc2)CCN(c2ncnc3[nH]cnc23)CC1 [Example 18, 4-(4-Chlorobenzyl)-1-(9H-purin-6-yl)piperidin-4-yl amine]	–	–
< 10	< 10	NCC1(Cc2ccc(Cl)cc2)CCN(c2ncnc3[nH]ccc23)CC1 [Example 19, C-[4-(4-Chlorobenzyl)-1-(7H-pyrrolo[2,3-d]pyrimidin-4-yl)piperidin-4-yl]methylamine]	–	–
< 10	< 10	NCC1(c2ccc(Cl)cc2)CCN(c2ncnc3[nH]c(=O)[nH]c23)CC1 [Example 20, 6-[4-Aminomethyl-4-(4-chlorophenyl)piperidin-1-yl]-7,9-dihydropurin-8-one]	–	–
–	< 10	CCn1c(=O)[nH]c2ncnc(N3CCC(CN)(c4ccc(Cl)cc4)CC3)c21 [Example 22, 6-[4-Aminomethyl-4-(4-chlorophenyl)piperidin-1-yl]-7-ethyl-7,9-dihydro-purin-8-one]	–	–
–	< 10	NCC1(Cc2ccc(Cl)cc2)CCN(c2ncnc3[nH]cnc23)CC1 [Example 23, C-[4-(4-Chlorobenzyl)-1-(9H-purin-6-yl)piperidin-4-yl]methylamine]	–	–
–	< 10	NCC1(c2cccc(Cl)c2)CCN(c2ncnc3[nH]cnc23)CC1 [Example 27, C-[4-(3-Chlorophenyl)-1-(9H-purin-6-yl)piperidin-4-yl]methylamine]	–	–
–	< 10	NCC1(c2ccc(F)c(F)c2)CCN(c2ncnc3[nH]ccc23)CC1 [Example 36, C-[4-(3,4-Difluorophenyl)-1-(7H-pyrrolo[2,3-d]pyrimidin-4-yl)piperidin-4-yl]methylamine]	–	–
–	< 10	NCC1(c2ccc(OCc3ccccc3)cc2)CCN(c2ncnc3[nH]cnc23)CC1 [Example 41, C-[4-(4-Benzyloxyphenyl)-1-(9H-purin-6-yl)piperidin-4-yl]methylamine]	–	–
–	< 10	NCC1(Cc2ccc(Cl)c(Cl)c2)CCN(c2ncnc3[nH]ccc23)CC1 [Example 45, C-[4-(3,4-Dichlorobenzyl)-1-(7H-pyrrolo[2,3-d]pyrimidin-4-yl)piperidin-4-yl]methylamine]	–	–
